Measured values from EP0104826A2, “Immunomodulator and method of use for immunomodulation” (FUJISAWA PHARMACEUTICAL CO., LTD., priority 1982, dated 1984).

Key:
[1] = system: mixed lymphocyte culture (MLC)-stimulated spleen cells; assay: Mixed lymphocyte culture (MLC), 3H-thymidine uptake; type: cell-based, mice
Procedure: Female C57BL/6 mice, 8 weeks in age, and female BALB/c mice, 8 weeks in age were sacrificed, spleens were aseptically removed and single cell suspensions were prepared as sources of stimulating and responding cells, respectively. Prior to culture, the stimulator cells were treated with 200 µg/ml of mitomycin C for 45 minutes at 37°C, followed by three washes with PBS.
They were established at a final concentration of 0.2 x 10^6 cells/0.2 ml of reaction mixture and cultured in microtiteration plate (Falcon, No.3040) using RPMI medium supplemented with 10% fetal bovine serum and 5 x 10^-5M 2- mercaptoethanol. The culture was continued for 120 hours and pulse-labeled with ^3H-thymidine for 24 hours before the termination of incubation. The cells were collected and radioactivity was counted.

thymus = assay: Dexamethasone-induced thymus atrophy in mice; type: in vivo; details: for Thymus weight: Dexamethasone treatment Yes, n=5
Procedure: Five week-old ddY mice(male) were used. Samples were given subcutaneously twice per day from day 0 to day 2 of the experiment. Five hours after first medication on day 0, mice were supplied with drinking water containing 1 ug/ml of dexamethasone.
At day 2, the weight of thymus of the treated mice was compared with that of the nontreated controls.

[2] = system: antibody forming capacities; assay: Antibody forming capacity (PFC-SRBC) in mice immunosuppressed with mitomycin C; type: in vivo
Procedure: Female BDF1 (8 weeks in age) mice were injected intraperitoneally with mitomycin C (1 mg/kg) from four days before immuization with 5 x 10^8 SRBC, every day for three days. Samples also were administered to mice intraperitoneally from four days before immunization, every day for five days.
At day 9, mice were sacrificed and the number of direct plaque forming cells per spleen was measured by using Cunningham modification method.

mouse spleen cells = assay: Mitogen (concanavalin A)-induced mouse spleen cell proliferation, 3H-thymidine incorporation; suppression by immunosuppressive factor and restoration; type: cell-based
Procedure: 1) Preparation of immunosuppressive factor from tumor bearing mice serum.
ICR mice were intraperitonealy inoculated with 0.2 ml of S-180 suspension (5x10^6 cells/ml). S-180 bearing mice were bled from heart under light ether anesthesia with sterile synringe between 7 and 9 days after transplantation and serum was collected.
Immunosuppressive factor was partially purified from the S-180 tumor bearing mice serum according to the method described by SE-KYUNG OH and F.L.MOOLTEN (J. Immunol., 127, 2300-2307, 1981). Briefly, the serum (50 ml) was delipidated with 1/10 vol. of 4% phosphotungstic acid and 1/40 vol of 2M magnesium chloride and centrifuged at 6000 x G for 10 min. Excess phosphotungstic acid and magnesium ion were removed by dialysis against phosphate- buffered saline (PBS: 0.15 M sodium chloride and 0.01 M phosphate buffer, pH 7.4). Then, partially delipidated serum was precipitated with ammonium sulfate at 50% saturation. The supernatant was removed by centrifugation at 20000 x G for 30 min. The precipitates were redissolved in a small volume of water and dialysed against PBS overnight at 4°C. The dialysed solution was chromatographed on Sephadex G-200 column in PBS. Each eluate (15 ml) was assayed for suppressive activity.
Immunosuppressive activity was measured by assay for inhibition of the mitogen-induced mouse spleen cell proliferation.
3) Suppression of mitogen-induced mouse spleen cell proliferation and its restoration by swainsonine in vitro.
Mitogenic activities for mouse spleen cells in vitro : • a) Mice. Female BALB/C strain (8 weeks of age) was used. • b) Tissue culture medium : The tissue culture medium employed was a complete medium designated Roswell Park Memorial Institute(RPMI)-1640. All media employed contained 100 units/ml of penicillin G and 100 µg/ml of streptomycin sulfate and 5% fetal calf serum. • c) Spleen cell preparation : Spleens were removed under sterile conditions and washed with Hanks solution and then teased in the tissue culture medium. The cells were suspended in the tissue culture medium to contain 5 x 10^5 cells/ml. • d) Culture conditions : Into each hole of Microtiteration plate (Falcon No. 3040) were poured 0.1 ml of the above cells suspension and 0.1 ml of the prescribed concentrate of the compound and/or immunosuppressive factor described above. […] The culture was incubated in triplicate at 37°C in a humidified atmosphere (95% air, 5% C02) for 48 hours. • e) Assay for mitogen induced mouse spleen cells proliferation. The mitogen induced mouse spleen cells proliferation was assayed for tritiated thymidine (^3H-thymidine) incorporation. In all tests, 20 pl of 10 micro curie (uCi)/ml of ^3H-thymidine was added to each hole for the 48 hours of culture. After further 24 hours incubation, the culture was terminated.
The resultant cells were filtered with filter paper, Whatman GF83 and washed successively with saline and with 5% trichloroacetic acid. The filter paper was dried and placed in a scintillator(toluene 1 liter containing 0.1 g of p-bis(5-phenyl oxazole)-benzene and 4 g of 2,5-diphenyloxazole), and ^3H-thymidine incorporated into DNA was measured.

[3] = system: antibody forming capacities; assay: Antibody forming capacity (PFC-SRBC) in Sarcoma 180 tumor bearing mice; type: in vivo
Procedure: Female ICR(8 weeks in age) mice were intraperitoneally inoculated with 0.2 ml of Sarcoma 180 suspension (5 x 10^6 cells/ml)at day 0. Samples were administered to mice intraperitoneally from 7 days before immunization with 5 x 10^8 SRBC, every day for five days.
The number of direct plaque forming cells per spleen was measured five days after immunization.

[4] = swainsonine alone added to mouse spleen cell culture

**Q.** With `O[C@H]1[C@H]2[C@H](O)CCCN2C[C@H]1O` [Swainsonine] as the compound, how does the “^3H-thymidine uptake (cpm)” value ([1]; MLC with immunosuppressive factor (3 µl) + swainsonine 0.00002 µg/well) read?
**A.** 10,449 cpm

**Q.** What about the “^3H-thymidine uptake (cpm)” value ([1]; MLC with immunosuppressive factor (3 µl) + swainsonine 0.0002 µg/well) of the same compound?
**A.** 13,015 cpm

**Q.** What about the “^3H-thymidine uptake (cpm)” value ([1]; MLC with immunosuppressive factor (3 µl) + swainsonine 0.002 µg/well) of the same compound?
**A.** 24,951 cpm

**Q.** And the “^3H-thymidine uptake (cpm)” value ([1]; MLC with immunosuppressive factor (3 µl) + swainsonine 0.02 µg/well)?
**A.** 31,595 cpm

**Q.** And the “^3H-thymidine uptake (cpm)” value ([1]; MLC with immunosuppressive factor (3 µl) + swainsonine 0.2 µg/well)?
**A.** 27,942 cpm

**Q.** And the “^3H-thymidine uptake (cpm)” value ([1]; MLC with immunosuppressive factor (3 µl) + swainsonine 2 µg/well)?
**A.** 23,928 cpm

**Q.** What about the “^3H-thymidine uptake (cpm)” value ([1]; MLC with immunosuppressive factor (5 µl) + swainsonine 0.00002 µg/well) of the same compound?
**A.** 3,737 cpm

**Q.** What about the “^3H-thymidine uptake (cpm)” value ([1]; MLC with immunosuppressive factor (5 µl) + swainsonine 0.0002 µg/well) of the same compound?
**A.** 6,377 cpm

**Q.** And the “^3H-thymidine uptake (cpm)” value ([1]; MLC with immunosuppressive factor (5 µl) + swainsonine 0.002 µg/well)?
**A.** 10,918 cpm

**Q.** And the “^3H-thymidine uptake (cpm)” value ([1]; MLC with immunosuppressive factor (5 µl) + swainsonine 0.02 µg/well)?
**A.** 7,679 cpm

**Q.** And the “^3H-thymidine uptake (cpm)” value ([1]; MLC with immunosuppressive factor (5 µl) + swainsonine 0.2 µg/well)?
**A.** 7,928 cpm

**Q.** And the “^3H-thymidine uptake (cpm)” value ([1]; MLC with immunosuppressive factor (5 µl) + swainsonine 2 µg/well)?
**A.** 6,709 cpm

**Q.** What about the “^3H-thymidine uptake (cpm)” value ([1]; MLC with swainsonine 0.00002 µg/well, no immunosuppressive factor) of the same compound?
**A.** 20,653 cpm

**Q.** And the “^3H-thymidine uptake (cpm)” value ([1]; MLC with swainsonine 0.0002 µg/well, no immunosuppressive factor)?
**A.** 21,823 cpm

**Q.** And the “^3H-thymidine uptake (cpm)” value ([1]; MLC with swainsonine 0.002 µg/well, no immunosuppressive factor)?
**A.** 29,688 cpm

**Q.** And the “^3H-thymidine uptake (cpm)” value ([1]; MLC with swainsonine 0.02 µg/well, no immunosuppressive factor)?
**A.** 33,686 cpm

**Q.** What about the “^3H-thymidine uptake (cpm)” value ([1]; MLC with swainsonine 0.2 µg/well, no immunosuppressive factor) of the same compound?
**A.** 38,077 cpm

**Q.** And the “^3H-thymidine uptake (cpm)” value ([1]; MLC with swainsonine 2 µg/well, no immunosuppressive factor)?
**A.** 33,104 cpm

**Q.** What about the “inhibitory activity of immunosuppressive factor in MLC” value ([1]; immunosuppressive factor incubated with swainsonine) of the same compound?
**A.** the inhibitory activity was removed

**Q.** And the “MLC-stimulated spleen cells ^3H-thymidine uptake” value ([1]; swainsonine added to MLC)?
**A.** enhanced remarkably

**Q.** And the Thymus weight (thymus; sample 5 mg/kg subcutaneously twice per day)?
**A.** 73.0 mg/mouse

**Q.** What about the Thymus weight (thymus; sample 15 mg/kg subcutaneously twice per day) of the same compound?
**A.** 78.8 mg/mouse

**Q.** And the Thymus weight (thymus; sample 50 mg/kg subcutaneously twice per day)?
**A.** 72.4 mg/mouse

**Q.** And the “atrophy of thymus induced by dexamethasone” value (thymus; mice)?
**A.** prevents

**Q.** And the “PFC-SRBC/spleen (average number of 5 mice/group)” value (from here on “PFC-SRBC/spleen”) ([2]; BDF1 mice, Swainsonine 100 mg/kg i.p. alone)?
**A.** 21.66 x 10^4 PFC-SRBC/spleen

**Q.** What about the “PFC-SRBC/spleen” value ([2]; Mitomycin C (1.0 mg/kg) + Swainsonine 3.7 mg/kg i.p.) of the same compound?
**A.** 21.31 x 10^4 PFC-SRBC/spleen

**Q.** And the “PFC-SRBC/spleen” value ([2]; Mitomycin C (1.0 mg/kg) + Swainsonine 11 mg/kg i.p.)?
**A.** 20.90 x 10^4 PFC-SRBC/spleen

**Q.** And the “PFC-SRBC/spleen” value ([2]; Mitomycin C (1.0 mg/kg) + Swainsonine 33 mg/kg i.p.)?
**A.** 20.90 x 10^4 PFC-SRBC/spleen

**Q.** What about the “PFC-SRBC/spleen” value ([2]; Mitomycin C (1.0 mg/kg) + Swainsonine 100 mg/kg i.p.) of the same compound?
**A.** 21.79 x 10^4 PFC-SRBC/spleen

**Q.** What about the “capacities to produce antibody against SRBC” value ([2]; mice injected mitomycin C) of the same compound?
**A.** restored the capacities

**Q.** And the “Con A induced stimulation of ^3H-thymidine incorporation into mouse spleen cell, increase relative to Con A only” value (mouse spleen cells; Con A and swainsonine added simultaneously)?
**A.** 10 times

**Q.** What about the “^3H-thymidine uptake (cpm)” value (mouse spleen cells; Concanavalin A 0.3 µg/well + swainsonine 0.0002 µg/well) of the same compound?
**A.** 67,017 cpm

**Q.** What about the “^3H-thymidine uptake (cpm)” value (mouse spleen cells; Concanavalin A 0.3 µg/well + swainsonine 0.002 µg/well) of the same compound?
**A.** 105,850 cpm

**Q.** What about the “^3H-thymidine uptake (cpm)” value (mouse spleen cells; Concanavalin A 0.3 µg/well + swainsonine 0.02 µg/well) of the same compound?
**A.** 108,748 cpm

**Q.** And the “^3H-thymidine uptake (cpm)” value (mouse spleen cells; Concanavalin A 0.3 µg/well + swainsonine 0.2 µg/well)?
**A.** 118,071 cpm

**Q.** And the “^3H-thymidine uptake (cpm)” value (mouse spleen cells; Concanavalin A 0.3 µg/well + swainsonine 2 µg/well)?
**A.** 100,480 cpm

**Q.** And the “^3H-thymidine uptake (cpm)” value (mouse spleen cells; Concanavalin A 0.3 µg/well + swainsonine 20 µg/well)?
**A.** 68,778 cpm

**Q.** And the “^3H-thymidine uptake (cpm)” value (mouse spleen cells; Concanavalin A 1 µg/well + Immunosuppressive factor 6 µl/well + swainsonine 0.002 µg/well)?
**A.** 69,313 cpm

**Q.** And the “^3H-thymidine uptake (cpm)” value (mouse spleen cells; Concanavalin A 1 µg/well + Immunosuppressive factor 6 µl/well + swainsonine 0.02 µg/well)?
**A.** 66,858 cpm

**Q.** And the “^3H-thymidine uptake (cpm)” value (mouse spleen cells; Concanavalin A 1 µg/well + Immunosuppressive factor 6 µl/well + swainsonine 0.2 µg/well)?
**A.** 70,890 cpm

**Q.** What about the “^3H-thymidine uptake (cpm)” value (mouse spleen cells; Concanavalin A 1 µg/well + Immunosuppressive factor 6 µl/well + swainsonine 2 µg/well) of the same compound?
**A.** 53,500 cpm

**Q.** What about the “^3H-thymidine uptake (cpm)” value (mouse spleen cells; Concanavalin A 1 µg/well + Immunosuppressive factor 6 µl/well + swainsonine 20 µg/well) of the same compound?
**A.** 37,746 cpm

**Q.** What about the “^3H-thymidine uptake (cpm)” value (mouse spleen cells; Swainsonine alone, 0.0002 µg/well) of the same compound?
**A.** 1,311 cpm

**Q.** What about the “^3H-thymidine uptake (cpm)” value (mouse spleen cells; Swainsonine alone, 0.002 µg/well) of the same compound?
**A.** 1,598 cpm

**Q.** What about the “^3H-thymidine uptake (cpm)” value (mouse spleen cells; Swainsonine alone, 0.02 µg/well) of the same compound?
**A.** 1,712 cpm

**Q.** And the “^3H-thymidine uptake (cpm)” value (mouse spleen cells; Swainsonine alone, 0.2 µg/well)?
**A.** 1,734 cpm

**Q.** What about the “^3H-thymidine uptake (cpm)” value (mouse spleen cells; Swainsonine alone, 2 µg/well) of the same compound?
**A.** 1,726 cpm

**Q.** What about the “^3H-thymidine uptake (cpm)” value (mouse spleen cells; Swainsonine alone, 20 µg/well) of the same compound?
**A.** 1,260 cpm

**Q.** What about the “suppression of mitogenic response by immunosuppressive factor” value (mouse spleen cells; swainsonine added to culture containing immunosuppressive factor) of the same compound?
**A.** prevented the suppression

**Q.** What about the “mitogenic activity of mouse spleen cell” value (mouse spleen cells; [4]) of the same compound?
**A.** did not affected

**Q.** And the spleen cell viability (mouse spleen cells; [4])?
**A.** did not affected

**Q.** And the “PFC-SRBC/spleen” value ([3]; ICR mice without tumor, Swainsonine 100 mg/kg i.p.)?
**A.** 118.7 x 10^4 PFC-SRBC/spleen

**Q.** And the “PFC-SRBC/spleen” value ([3]; Tumor bearer (Sarcoma 180, ICR mice) + Swainsonine 100 mg/kg i.p., every day for five days)?
**A.** 126.7 x 10^4 PFC-SRBC/spleen

**Q.** What about the “PFC-SRBC/spleen” value ([3]; Tumor bearer + Swainsonine 3.7 mg/kg i.p.) of the same compound?
**A.** 61.6 x 10^4 PFC-SRBC/spleen

**Q.** And the “PFC-SRBC/spleen” value ([3]; Tumor bearer + Swainsonine 11 mg/kg i.p.)?
**A.** 71.6 x 10^4 PFC-SRBC/spleen

**Q.** What about the “PFC-SRBC/spleen” value ([3]; Tumor bearer + Swainsonine 33 mg/kg i.p.) of the same compound?
**A.** 123.5 x 10^4 PFC-SRBC/spleen

**Q.** And the “capacities to produce antibody against SRBC” value ([3]; tumor bearing mice)?
**A.** restored the capacities
